Experimental data: ChEMBL document CHEMBL5108019, “Discovery of a novel Pleuromutilin derivative as anti-IPF lead compound via high-throughput assay” (Eur J Med Chem, 2022)
Values after ≈ are worked out from the molar mass of the structure shown. Active and inactive are the calls of the source. The rule behind the calls is not given here.

Legend:
[1] = molecular target: Transforming growth factor beta-1 proprotein/Mothers against decapentaplegic homolog 3 (Mus musculus) (UniProt P04202+Q8BUN5); assay: Inhibition of TGF-beta1/Smad3 signalling in TGF-beta1 treated mouse NIH3T3 cells transfected with (CAGA)12-Lux reporter gene assessed as suppressive ratio at 10 uM incubated for 18 hrs by luciferase based analysis relative to control; assay type: cell-based; parameters: scale not given: the % may be the effect or the level left
Transforming growth factor beta-1 proprotein/Mothers against decapentaplegic homolog 3 (Mus musculus), sequence (P04202 279-390 limits assumed): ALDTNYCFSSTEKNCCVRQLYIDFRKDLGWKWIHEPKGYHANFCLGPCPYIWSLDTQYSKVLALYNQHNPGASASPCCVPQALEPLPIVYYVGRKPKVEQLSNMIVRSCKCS
Transforming growth factor beta-1 proprotein/Mothers against decapentaplegic homolog 3 (Mus musculus), sequence (Q8BUN5 2-425 partner limits assumed): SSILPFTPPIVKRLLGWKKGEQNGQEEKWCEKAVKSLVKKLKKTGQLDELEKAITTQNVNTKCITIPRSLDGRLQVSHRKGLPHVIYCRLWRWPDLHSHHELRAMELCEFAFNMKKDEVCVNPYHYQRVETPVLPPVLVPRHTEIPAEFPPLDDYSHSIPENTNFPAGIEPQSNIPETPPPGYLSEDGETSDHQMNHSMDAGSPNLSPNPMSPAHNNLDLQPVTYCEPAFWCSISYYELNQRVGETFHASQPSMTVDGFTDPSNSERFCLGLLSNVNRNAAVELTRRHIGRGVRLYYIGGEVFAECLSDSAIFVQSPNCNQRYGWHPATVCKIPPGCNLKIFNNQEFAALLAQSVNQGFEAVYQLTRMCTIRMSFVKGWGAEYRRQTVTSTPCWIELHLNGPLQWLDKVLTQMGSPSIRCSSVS

Bacillus subtilis = assay: Antibacterial activity against Bacillus subtilis assessed as bacterial growth inhibition incubated for 24 hrs; assay type: functional
Escherichia coli = assay: Antibacterial activity against Escherichia coli assessed as bacterial growth inhibition incubated for 24 hrs; assay type: functional
Staphylococcus aureus = assay: Antibacterial activity against Staphylococcus aureus assessed as bacterial growth inhibition incubated for 24 hrs; assay type: functional
Mus musculus [2] = assay: Antifibrotic activity against BLM-induced pulmonary fibrosis in C57BL/6 mouse model assessed as reduction in fibrosis region at 100 mg/kg, po administered once daily starting from day 7 post BLM treatment and measured on day 14 by hematoxylin-eosin and Masson trichrome staining based analysis relative to control; assay type: functional, organism-based; conditions: time 14.0 day
Mus musculus [3] = assay: Antifibrotic activity against BLM-induced pulmonary fibrosis in C57BL/6 mouse model assessed as improvement in pulmonary alveolar structure damage at 100 mg/kg, po administered once daily starting from day 7 post BLM treatment and measured on day 14 by H and E staining based analysis; assay type: functional, organism-based; conditions: time 14.0 day

Row | Compound | Activity [1] [%] | also measured
1 | C=C[C@]1(C)C[C@@H](O)[C@]2(C)[C@H](C)CC[C@]3(C/C(=C\c4ccc(C(=O)NC5CCN(C)CC5)cc4)C(=O)[C@H]32)[C@@H](C)[C@@H]1O | -9.93 | –
2 | C=C[C@]1(C)C[C@@H](O)[C@]2(C)[C@H](C)CC[C@]3(C/C(=C\c4ccc(OC)cc4)C(=O)[C@H]32)[C@@H](C)[C@@H]1O | 21 | –
3 | C=C[C@]1(C)C[C@@H](O)[C@]2(C)[C@H](C)CC[C@]3(C/C(=C\c4ccc(C(F)(F)F)cc4)C(=O)[C@H]32)[C@@H](C)[C@@H]1O | 35.5 | –
4 | C=C[C@]1(C)C[C@@H](O)[C@]2(C)[C@H](C)CC[C@]3(C/C(=C\c4cccnc4)C(=O)[C@H]32)[C@@H](C)[C@@H]1O | 0.29 | –
5 | C=C[C@]1(C)C[C@@H](O)[C@]2(C)[C@H](C)CC[C@]3(C/C(=C\c4ccccc4)C(=O)[C@H]32)[C@@H](C)[C@@H]1O | 15.2 | –
6 | C=C[C@]1(C)C[C@@H](O)[C@]2(C)[C@H](C)CC[C@]3(C/C(=C\c4ccc(C(=O)N5CCN(C)CC5)cc4)C(=O)[C@H]32)[C@@H](C)[C@@H]1O | 40.3 | MIC (Bacillus subtilis): > 1000 µg/mL; MIC (Escherichia coli): > 1000 µg/mL; MIC (Staphylococcus aureus): > 1000 µg/mL
7 | C=C[C@]1(C)C[C@@H](O)[C@]2(C)[C@H](C)CC[C@]3(C/C(=C\c4ccc(C(=O)Nc5ccccc5)cc4)C(=O)[C@H]32)[C@@H](C)[C@@H]1O | -27.7 | –
8 | C=C[C@]1(C)C[C@@H](OC(=O)CO)[C@]2(C)[C@H](C)CC[C@]3(CCC(=O)[C@H]32)[C@@H](C)[C@@H]1O [PLEUROMULIN] | – | MIC (Bacillus subtilis): 100 µg/mL (≈ 264 µM); MIC (Escherichia coli): 10 µg/mL (≈ 26.4 µM); MIC (Staphylococcus aureus): 5 µg/mL (≈ 13.2 µM)
9 | C=C[C@]1(C)C[C@@H](O)[C@]2(C)[C@H](C)CC[C@]3(C/C(=C\c4cccc(C(=O)N5CCN(C)CC5)c4)C(=O)[C@H]32)[C@@H](C)[C@@H]1O | 7.27 | –
10 | C=C[C@]1(C)C[C@@H](O)[C@]2(C)[C@H](C)CC[C@]3(C/C(=C\c4ccc(C(=O)N(C)C)cc4)C(=O)[C@H]32)[C@@H](C)[C@@H]1O | -20.3 | –
11 | C=C[C@]1(C)C[C@@H](O)[C@]2(C)[C@H](C)CC[C@]3(C/C(=C\c4ccc(C(=O)O)cc4)C(=O)[C@H]32)[C@@H](C)[C@@H]1O | 41.4 | MIC (Bacillus subtilis): > 1000 µg/mL; MIC (Escherichia coli): > 1000 µg/mL; MIC (Staphylococcus aureus): > 1000 µg/mL
12 | C=C[C@]1(C)C[C@@H](O)[C@]2(C)[C@H](C)CC[C@]3(C/C(=C\c4ccc(F)cc4)C(=O)[C@H]32)[C@@H](C)[C@@H]1O | 35.3 | –
13 | C=C[C@]1(C)C[C@@H](O)[C@]2(C)[C@H](C)CC[C@]3(C/C(=C\c4ccc(C(=O)N5CCOCC5)cc4)C(=O)[C@H]32)[C@@H](C)[C@@H]1O | -19.9 | –
14 | NC(=O)c1ccc(-c2nc(-c3ccccn3)c(-c3ccc4c(c3)OCO4)[nH]2)cc1 | 98.9 | –
15 | C=C[C@]1(C)C[C@@H](O)[C@]2(C)[C@H](C)CC[C@]3(C/C(=C\c4ccc(Cl)cc4)C(=O)[C@H]32)[C@@H](C)[C@@H]1O | 48.9 | –
16 | C=C[C@]1(C)C[C@@H](O)[C@]2(C)[C@H](C)CC[C@]3(C/C(=C\c4cccc(C(=O)O)c4)C(=O)[C@H]32)[C@@H](C)[C@@H]1O | -0.41 | –
17 | C=C[C@]1(C)C[C@@H](O)[C@]2(C)[C@H](C)CC[C@]3(C/C(=C\c4ncccc4F)C(=O)[C@H]32)[C@@H](C)[C@@H]1O | 13.5 | –
18 | C=C[C@]1(C)C[C@@H](O)[C@]2(C)[C@H](C)CC[C@]3(C/C(=C\c4ccccc4N4CCOCC4)C(=O)[C@H]32)[C@@H](C)[C@@H]1O | 20.6 | –
19 | C=C[C@]1(C)C[C@@H](O)[C@]2(C)[C@H](C)CC[C@]3(C/C(=C\c4cccc(C(=O)NC5CCCCC5)c4)C(=O)[C@H]32)[C@@H](C)[C@@H]1O | -3.36 | –
20 | Cc1ccc(=O)n(-c2ccccc2)c1 | – | Activity (Mus musculus [2]): Active; Activity (Mus musculus [3]): Active
21 | C=C[C@]1(C)C[C@@H](O)[C@]2(C)[C@H](C)CC[C@]3(C/C(=C\C=C\c4ccccc4)C(=O)[C@H]32)[C@@H](C)[C@@H]1O | 34 | –
22 | C=C[C@]1(C)C[C@@H](O)[C@]2(C)[C@H](C)CC[C@]3(C/C(=C\c4ccc5ccccc5c4)C(=O)[C@H]32)[C@@H](C)[C@@H]1O | 26.5 | –
23 | C=C[C@]1(C)C[C@@H](O)[C@]2(C)[C@H](C)CC[C@]3(C/C(=C\c4ccc(C(=O)N5CCCCC5)cc4)C(=O)[C@H]32)[C@@H](C)[C@@H]1O | -16.7 | –

Second part, led by results:

Row | Activity [1] [%] | Compound | also measured
24 | 13.3 | C=C[C@]1(C)C[C@@H](O)[C@]2(C)[C@H](C)CC[C@]3(C/C(=C\c4ccc(C(C)(C)C)cc4)C(=O)[C@H]32)[C@@H](C)[C@@H]1O | –
25 | 31 | C=C[C@]1(C)C[C@@H](O)[C@]2(C)[C@H](C)CC[C@]3(C/C(=C\c4ccco4)C(=O)[C@H]32)[C@@H](C)[C@@H]1O | –
26 | 18.5 | C=C[C@]1(C)C[C@@H](O)[C@]2(C)[C@H](C)CC[C@]3(C/C(=C\CC(C)(C)C)C(=O)[C@H]32)[C@@H](C)[C@@H]1O | –
27 | 42.5 | C=C[C@]1(C)C[C@@H](O)[C@]2(C)[C@H](C)CC[C@]3(C/C(=C\c4c(C)cc(C)cc4C)C(=O)[C@H]32)[C@@H](C)[C@@H]1O | –
28 | 30.6 | C=C[C@]1(C)C[C@@H](O)[C@]2(C)[C@H](C)CC[C@]3(C/C(=C\C4CCCC4)C(=O)[C@H]32)[C@@H](C)[C@@H]1O | –
29 | 0.99 | C=C[C@]1(C)C[C@@H](O)[C@]2(C)[C@H](C)CC[C@]3(C/C(=C\c4cccc(C)c4)C(=O)[C@H]32)[C@@H](C)[C@@H]1O | –
30 | 32.4 | C=C[C@]1(C)C[C@@H](O)[C@]2(C)[C@H](C)CC[C@]3(C/C(=C\C4CCCCC4)C(=O)[C@H]32)[C@@H](C)[C@@H]1O | –
31 | -10.8 | C=C[C@]1(C)C[C@@H](O)[C@]2(C)[C@H](C)CC[C@]3(C/C(=C\C4CC4)C(=O)[C@H]32)[C@@H](C)[C@@H]1O | –
32 | 0.45 | C=C[C@]1(C)C[C@@H](O)[C@]2(C)[C@H](C)CC[C@]3(C/C(=C\CCC)C(=O)[C@H]32)[C@@H](C)[C@@H]1O | –
33 | 16.9 | C=C[C@]1(C)C[C@@H](O)[C@]2(C)[C@H](C)CC[C@]3(C/C(=C\CCCC)C(=O)[C@H]32)[C@@H](C)[C@@H]1O | –
34 | 32.8 | C=C[C@]1(C)C[C@@H](O)[C@]2(C)[C@H](C)CC[C@]3(C/C(=C\c4ccc(C)cc4)C(=O)[C@H]32)[C@@H](C)[C@@H]1O | –
35 | 38.8 | C=C[C@]1(C)C[C@@H](O)[C@]2(C)[C@H](C)CC[C@]3(C/C(=C\c4ccccc4C)C(=O)[C@H]32)[C@@H](C)[C@@H]1O | –
36 | 46 | C=C[C@]1(C)C[C@@H](O)[C@]2(C)[C@H](C)CC[C@]3(C/C(=C\c4ccc(SC)cc4)C(=O)[C@H]32)[C@@H](C)[C@@H]1O | –
37 | 6.58 | C=C[C@]1(C)C[C@@H](O)[C@]2(C)[C@H](C)CC[C@]3(C/C(=C\C(C)(C)C)C(=O)[C@H]32)[C@@H](C)[C@@H]1O | –
